From US6642271B2, “Potentiating compounds” (Ardenia Investments, Ltd., priority 2001, dated 2003)
Values belong to the compound of their own block, whether it stands above or below them.

What was measured:
[1] = tested on: human breast adenocarcinoma MDA-MB-231 cell line; assay: Cytotoxicity: cell growth inhibition in cultures, viable cells counted by trypan blue exclusion; assay type: cell-based; settings: for inhibition at 0.04 µM / inhibition at 1 µM / inhibition at 0.1 µM / inhibition at 0.01 µM / inhibition at 0.001 µM / inhibition at 0.0001 µM / inhibition at 10 pM: Homo sapiens; for Cell growth inhibition % Formulation: compound/paclitaxel formulations in saline; for Cell growth inhibition % OF W/SAB / Cell growth inhibition % OF SAB/W: dried compound/paclitaxel mixed-micellar system (OF); for Cell growth inhibition % OF W/SAB: freeze-dried as water solution, reconstituted with 0.05 M sodium acetate buffer; for Cell growth inhibition % OF SAB/W: freeze-dried in 0.05 M sodium acetate buffer, reconstituted with water
Method: The cell line was propagated by cultivation in Nunclon 25 cm^2 flasks (Nunc A/S, Denmark) in Minimum Essential Medium Eagle (MEM), containing antibiotics and supplemented with 10% (v/v) fetal bovine serum (FBS) (Sigma, St. Louis, Mo., USA). The cultures were maintained in growth medium at 37° C. in a humidified atmosphere, 95% air and 5% CO2.
A suspension of tumour cells (60×10^3 cells/mL) was prepared in MEM with 5% FBS and antibiotics. Cell suspension (200 μL) was seeded in wells of Nunclon 96-microwell plates (Nunc A/S, Denmark) at a density of 12×10^3 cell/well. The solutions of the drugs to be tested were added to the cultures on day 0 or day 1 in volumes of 2 μL. In all cases the cells were incubated for 3 days.
At the end of the incubation period, adherent cells were detached by trypsinization and the number of viable cells was counted using trypan blue dye exclusion test and a hemocytometer.
All experiments were performed at least twice and the cells counts were done in triplicate for each drug concentration. Each control and test series consisted of 6-8 cultures. The results are expressed as mean cell number ±SD and the differences between control and test series were evaluated by means of Student's t-test. The cytotoxicity of each tested drug was evaluated by the extent of cell growth inhibition. The Cell growth inhibition was evaluated as follows:
Cell growth inhibition, %=- - - ×100

[2] = Solubility of compounds and formulations; assay type: physicochemical; settings: for solubility in solvents: sodium salts
Method: The obtained solution can be stored for at least three months at low temperatures, without noticeable change in the properties of compound (I-VI). Moreover, the formulation retains its cytotoxic effects during prolonged storage. Before use, the solution is evaporated in vacuo to yield a waxy solid which is dissolved in saline or other commonly used vehicle for intravenous infusion to a patient. […] An ethanol solution is prepared of one of N-(all-trans-Retinoyl)-L-cysteic acid (I), N-(13-cis-Retinoyl)-L-cysteic acid (11), N-(all-trans-Retinoyl)-L-homocysteic acid (III), N-(13-cis-Retinoyl)-L-homocysteic acid (IV), N-(all-trans-Retinoyl)-L-cysteinesulfinic acid (V), or N-(13-cis-Retinoyl)-L-cysteinesulfinic acid (VI). The obtained solution is evaporated in vacuo to give waxy solid, whereupon Taxol® is added, dissolving the waxy solid. […]

[3] = MDA-MB-231, compound alone 4 × 10^−8 mol/L (40 nM), added day 0, three days
[4] = MDA-MB-231, dry substance, stock 1 mg/ml in saline, final 4 × 10^−8 mol/L, day 1, three days
[5] = MDA-MB-231, dry substance, stock 1 mg/ml in saline, final 10^−6 mol/L, day 1, three days
[6] = MDA-MB-231, dry substance, stock 1 mg/ml in saline, final 10^−7 mol/L, day 1, three days
[7] = MDA-MB-231, dry substance, stock 1 mg/ml in saline, final 10^−8 mol/L, day 1, three days
[8] = MDA-MB-231, dry substance, stock 1 mg/ml in saline, final 10^−9 mol/L, day 1, three days
[9] = MDA-MB-231, dry substance, stock 1 mg/ml in saline, final 10^−10 mol/L, day 1, three days
[10] = MDA-MB-231, dry substance, stock 1 mg/ml in saline, final concentration 10^−11 mol/L, day 1, three days
[11] = MDA-MB-231, sodium salt in saline, final 4 × 10^−8 mol/L, day 1, three days
[12] = MDA-MB-231, sodium salt in saline, final 10^−6 mol/L (top of range 10^−11 M to 10^−6 M), day 1, three days
[13] = MDA-MB-231, sodium salt in saline, final 10^−7 mol/L, day 1, three days
[14] = MDA-MB-231, sodium salt in saline, final 10^−8 mol/L, day 1, three days
[15] = MDA-MB-231, sodium salt in saline, final 10^−9 mol/L, day 1, three days
[16] = MDA-MB-231, sodium salt in saline, final 10^−10 mol/L, day 1, three days
[17] = MDA-MB-231, sodium salt of the compound dissolved in saline (1 mg/ml), final concentration 10^−11 mol/L, day 1, three days
[18] = compound alone 4 × 10^−8 mol/L (40 nM), added day 0, three days, 0.04 µM
[19] = compound alone 4 × 10^−8 mol/L, added day 0, three days
[20] = dry substance, stock 1 mg/ml in saline, final 4 × 10^−8 mol/L, day 1, three days
[21] = dry substance, stock 1 mg/ml in saline, final 10^−6 mol/L, day 1, three days
[22] = dry substance, stock 1 mg/ml in saline, final 10^−7 mol/L, day 1, three days
[23] = dry substance, stock 1 mg/ml in saline, final 10^−8 mol/L, day 1, three days
[24] = dry substance, stock 1 mg/ml in saline, final 10^−9 mol/L, day 1, three days
[25] = dry substance, stock 1 mg/ml in saline, final 10^−10 mol/L, day 1, three days
[26] = dry substance, stock 1 mg/ml in saline, final concentration 10^−11 mol/L, day 1, three days
[27] = initial saline solution 0.005 mg/mL, final 40 nM in cultures, added day 1, three days of cultivation
[28] = initial saline solution 0.05 mg/mL, final 40 nM, day 1, three days
[29] = initial saline solution 0.5 mg/mL, final 40 nM, day 1, three days
[30] = initial saline solution 1.0 mg/mL, final 40 nM, day 1, three days
[31] = initial saline solution 5.0 mg/mL, final 40 nM, day 1, three days
[32] = sodium salt in saline, final 4 × 10^−8 mol/L, day 1, three days
[33] = sodium salt in saline, final 10^−6 mol/L (top of range 10^−11 M to 10^−6 M), day 1, three days
[34] = sodium salt in saline, final 10^−6 mol/L, day 1, three days
[35] = sodium salt in saline, final 10^−7 mol/L, day 1, three days
[36] = sodium salt in saline, final 10^−8 mol/L, day 1, three days
[37] = sodium salt in saline, final 10^−9 mol/L, day 1, three days
[38] = sodium salt in saline, final 10^−10 mol/L, day 1, three days
[39] = sodium salt of the compound dissolved in saline (1 mg/ml), final concentration 10^−11 mol/L, day 1, three days

- solubility in the commercially available Taxol® preparation [2]: excellent solubility
Structure (SMILES): CC1=C(/C=C/C(C)=C/C=C/C(C)=C/C(=O)N[C@@H](CS(=O)(=O)O)C(=O)O)C(C)(C)CCC1 [Compound I, N-(all-trans-Retinoyl)-L-cysteic acid]
- inhibition at 0.04 µM [1, 3]: 39.6%
- inhibition at 0.04 µM [1, 4]: 38.1%
- inhibition at 1 µM [1, 5]: 42.1%
- inhibition at 0.1 µM [1, 6]: 39.1%
- inhibition at 0.01 µM [1, 7]: 29.9%
- inhibition at 0.001 µM [1, 8]: 19.8%
- inhibition at 0.0001 µM [1, 9]: 18.6%
- inhibition at 10 pM [1, 10]: 27.3%
- inhibition at 0.04 µM [1, 11]: 46.8%
- inhibition at 1 µM [1, 12]: 49.7%
- inhibition at 0.1 µM [1, 13]: 48%
- inhibition at 0.01 µM [1, 14]: 46.2%
- inhibition at 0.001 µM [1, 15]: 39.7%
- inhibition at 0.0001 µM [1, 16]: 36.5%
- inhibition at 10 pM [1, 17]: 28.6%
- cell growth inhibition [1, 18]: ~40%
- number of living cells [1, 19]: 16.3 ± 2.50 × 10^3
- Cell growth inhibition % Formulation [1]: close to 75%
- Cell growth inhibition % OF W/SAB [1]: close to 71%
- Cell growth inhibition % OF SAB/W [1]: close to 72%
- number of living cells [1, 20]: 30.9 ± 1.62 × 10^3
- number of living cells [1, 21]: 28.9 ± 2.68 × 10^3
- number of living cells [1, 22]: 30.4 ± 1.83 × 10^3
- number of living cells [1, 23]: 35.0 ± 4.38 × 10^3
- number of living cells [1, 24]: 40.0 ± 2.31 × 10^3
- number of living cells [1, 25]: 40.6 ± 1.69 × 10^3
- number of living cells [1, 26]: 36.3 ± 3.82 × 10^3
- cell growth inhibition [1, 27]: 33.3%
- number of living cells [1, 27]: 33.3 ± 2.55 × 10^3
- cell growth inhibition [1, 28]: 32.1%
- number of living cells [1, 28]: 33.9 ± 2.78 × 10^3
- cell growth inhibition [1, 29]: 31.5%
- number of living cells [1, 29]: 34.2 ± 5.09 × 10^3
- cell growth inhibition [1, 30]: 38.3%
- number of living cells [1, 30]: 30.8 ± 3.53 × 10^3
- cell growth inhibition [1, 31]: 27.7%
- number of living cells [1, 31]: 36.1 ± 4.10 × 10^3
- number of living cells [1, 32]: 31.2 ± 1.72 × 10^3
- cell growth inhibition [1, 33]: ~50%
- number of living cells [1, 34]: 29.5 ± 1.36 × 10^3
- number of living cells [1, 35]: 30.5 ± 0.89 × 10^3
- number of living cells [1, 36]: 31.6 ± 1.69 × 10^3
- number of living cells [1, 37]: 35.4 ± 2.23 × 10^3
- number of living cells [1, 38]: 37.3 ± 2.84 × 10^3
- number of living cells [1, 39]: 41.9 ± 2.17 × 10^3
- solubility in solvents [2]: soluble only in mixtures containing water

- solubility in the commercially available Taxol® preparation [2]: excellent solubility
Structure (SMILES): CC1=C(/C=C/C(C)=C/C=C/C(C)=C\C(=O)N[C@@H](CS(=O)(=O)O)C(=O)O)C(C)(C)CCC1 [Compound II, N-(13-cis-Retinoyl)-L-cysteic acid]
- inhibition at 0.04 µM [1, 3]: 35.3%
- inhibition at 0.04 µM [1, 4]: 36.8%
- inhibition at 1 µM [1, 5]: 41.9%
- inhibition at 0.1 µM [1, 6]: 38.4%
- inhibition at 0.01 µM [1, 7]: 27.5%
- inhibition at 0.001 µM [1, 8]: 21.5%
- inhibition at 0.0001 µM [1, 9]: 17.8%
- inhibition at 10 pM [1, 10]: 28.9%
- inhibition at 0.04 µM [1, 11]: 46.8%
- inhibition at 1 µM [1, 12]: 51.6%
- inhibition at 0.1 µM [1, 13]: 46%
- inhibition at 0.01 µM [1, 14]: 46.5%
- inhibition at 0.001 µM [1, 15]: 41.2%
- inhibition at 0.0001 µM [1, 16]: 35.1%
- inhibition at 10 pM [1, 17]: 27.9%
- cell growth inhibition [1, 18]: ~40%
- number of living cells [1, 19]: 29.9 ± 2.38 × 10^3
- Cell growth inhibition % Formulation [1]: close to 75%
- Cell growth inhibition % OF W/SAB [1]: close to 71%
- Cell growth inhibition % OF SAB/W [1]: close to 72%
- number of living cells [1, 20]: 32.6 ± 2.52 × 10^3
- number of living cells [1, 21]: 30.0 ± 2.14 × 10^3
- number of living cells [1, 22]: 31.8 ± 2.05 × 10^3
- number of living cells [1, 23]: 37.4 ± 3.86 × 10^3
- number of living cells [1, 24]: 40.5 ± 2.11 × 10^3
- number of living cells [1, 25]: 42.4 ± 1.93 × 10^3
- number of living cells [1, 26]: 36.7 ± 3.65 × 10^3
- cell growth inhibition [1, 27]: 32.6%
- number of living cells [1, 27]: 34.8 ± 3.27 × 10^3
- number of living cells [1, 28]: 33.4 ± 2.91 × 10^3
- cell growth inhibition [1, 29]: 35.9%
- number of living cells [1, 29]: 33.1 ± 3.01 × 10^3
- cell growth inhibition [1, 30]: 37.6%
- number of living cells [1, 30]: 32.2 ± 2.14 × 10^3
- cell growth inhibition [1, 31]: 29.3%
- number of living cells [1, 31]: 36.5 ± 3.88 × 10^3
- number of living cells [1, 32]: 31.2 ± 2.33 × 10^3
- cell growth inhibition [1, 33]: ~50%
- number of living cells [1, 34]: 28.4 ± 1.02 × 10^3
- number of living cells [1, 35]: 31.7 ± 1.54 × 10^3
- number of living cells [1, 36]: 31.4 ± 1.62 × 10^3
- number of living cells [1, 37]: 34.5 ± 1.94 × 10^3
- number of living cells [1, 38]: 38.1 ± 1.18 × 10^3
- number of living cells [1, 39]: 42.3 ± 2.32 × 10^3
- solubility in solvents [2]: soluble only in mixtures containing water
